Values joined by “and” are separate entries in the source; they are usually repeats but may differ in a detail not shown here. Identical values can stand only once. Toxic doses and inconclusive results are not listed. Cut-off read from the data, not from the text of the source: active = T/C of 150% or more; inactive = T/C below 125%.
Tested on: L1210 leukemia ip in BDF1 mice, survival T/C
Assay: NCI In Vivo Anticancer Drug Screen. Data for tumor model L1210 Leukemia (intraperitoneal) in B6D2F1 (BDF1) mice
Settings: higher = longer survival
Method in brief: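 Survival endpoint. Drug-treated group vs vehicle group, expressed as T divided by C. Tumor passaged by transplantation.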

[1] = endpoint: mean survival time, dose: 100.0 mg/kg/injection, schedule: Q01DX009 (ip), vehicle: saline
[2] = endpoint: mean survival time, dose: 100.0 mg/kg/injection, schedule: Q04DX003 (ip), vehicle: saline
[3] = endpoint: mean survival time, dose: 200.0 mg/kg/injection, schedule: Q01DX009 (ip), vehicle: saline
[4] = endpoint: mean survival time, dose: 200.0 mg/kg/injection, schedule: Q04DX003 (ip), vehicle: saline
[5] = endpoint: mean survival time, dose: 100.0 mg/kg/injection, schedule: Q01DX009 (ip), vehicle: Klucel (hydroxypropylcellulose) (HPC)
[6] = endpoint: mean survival time, dose: 100.0 mg/kg/injection, schedule: Q01DX009 (ip), vehicle: saline with Tween-80
[7] = endpoint: mean survival time, dose: 100.0 mg/kg/injection, schedule: Q04DX003 (ip), vehicle: Klucel (hydroxypropylcellulose) (HPC)
[8] = endpoint: mean survival time, dose: 100.0 mg/kg/injection, schedule: Q04DX003 (ip), vehicle: saline with Tween-80
[9] = endpoint: mean survival time, dose: 200.0 mg/kg/injection, schedule: Q01DX009 (ip), vehicle: Klucel (hydroxypropylcellulose) (HPC)
[10] = endpoint: mean survival time, dose: 200.0 mg/kg/injection, schedule: Q04DX003 (ip), vehicle: Klucel (hydroxypropylcellulose) (HPC)
[11] = endpoint: mean survival time, dose: 200.0 mg/kg/injection, schedule: Q04DX003 (ip), vehicle: saline with Tween-80
[12] = endpoint: mean survival time, dose: 400.0 mg/kg/injection, schedule: Q01DX009 (ip), vehicle: Klucel (hydroxypropylcellulose) (HPC)
[13] = endpoint: mean survival time, dose: 400.0 mg/kg/injection, schedule: Q04DX003 (ip), vehicle: Klucel (hydroxypropylcellulose) (HPC)
[14] = endpoint: mean survival time, dose: 400.0 mg/kg/injection, schedule: Q04DX003 (ip), vehicle: saline with Tween-80
[15] = endpoint: mean survival time, dose: 100.0 mg/kg/injection, schedule: Q01DX001 (ip), vehicle: carboxymethylcellulose (CMC)
[16] = endpoint: mean survival time, dose: 200.0 mg/kg/injection, schedule: Q01DX001 (ip), vehicle: carboxymethylcellulose (CMC)
[17] = endpoint: mean survival time, dose: 400.0 mg/kg/injection, schedule: Q01DX001 (ip), vehicle: carboxymethylcellulose (CMC)
[18] = endpoint: mean survival time, dose: 50.0 mg/kg/injection, schedule: Q01DX009 (ip), vehicle: saline
[19] = endpoint: mean survival time, dose: 50.0 mg/kg/injection, schedule: Q01DX001 (ip), vehicle: saline
[20] = endpoint: mean survival time, dose: 100.0 mg/kg/injection, schedule: Q01DX001 (ip), vehicle: saline
[21] = endpoint: mean survival time, dose: 200.0 mg/kg/injection, schedule: Q01DX001 (ip), vehicle: saline
[22] = endpoint: mean survival time, dose: 400.0 mg/kg/injection, schedule: Q01DX001 (ip), vehicle: saline

Measured: T/C

O=C(O)C1(C(=O)O)CC2CC=CCC2C1 (stereo unspecified)
inactive: endpoint: mean survival time, dose: 100.0 mg/kg/injection, schedule: Q01DX001 (ip), vehicle: acetone 97 % of control | endpoint: mean survival time, dose: 100.0 mg/kg/injection, schedule: Q04DX003 (ip), vehicle: acetone 100 % of control | endpoint: mean survival time, dose: 200.0 mg/kg/injection, schedule: Q01DX001 (ip), vehicle: acetone 101 % of control | endpoint: mean survival time, dose: 200.0 mg/kg/injection, schedule: Q04DX003 (ip), vehicle: acetone 104 % of control | endpoint: mean survival time, dose: 400.0 mg/kg/injection, schedule: Q01DX001 (ip), vehicle: acetone 95 % of control | endpoint: mean survival time, dose: 400.0 mg/kg/injection, schedule: Q04DX003 (ip), vehicle: acetone 98 % of control

COC1OC1(C)C (stereo unspecified)
inactive: [1] 102 % of control | [2] 104 % of control | [3] 103 % of control | [4] 102 % of control | endpoint: mean survival time, dose: 400.0 mg/kg/injection, schedule: Q01DX009 (ip), vehicle: saline 100 % of control | endpoint: mean survival time, dose: 400.0 mg/kg/injection, schedule: Q04DX003 (ip), vehicle: saline 98 % of control

NNc1ccc(C(=O)O)cc1
inactive: [5] 100 % of control | [6] 98 % of control and 101 % of control | [7] 102 % of control | [8] 100 % of control and 101 % of control | [9] 96 % of control | endpoint: mean survival time, dose: 200.0 mg/kg/injection, schedule: Q01DX009 (ip), vehicle: saline with Tween-80 93 % of control and 95 % of control | [10] 91 % of control | [11] 96 % of control and 108 % of control | [12] 100 % of control | endpoint: mean survival time, dose: 400.0 mg/kg/injection, schedule: Q01DX009 (ip), vehicle: saline with Tween-80 117 % of control and 91 % of control | [13] 96 % of control | [14] 94 % of control and 96 % of control

O=C(Nc1ccc(S(=O)(=O)NC2CCCCC2)cc1)OC1CCCC1
inactive: [15] 95 % of control | [16] 94 % of control | [17] 97 % of control

N=C(N)c1ccc(OCCCCCCOc2ccc(C(=N)N)cc2)cc1
inactive: endpoint: mean survival time, dose: 5.0 mg/kg/injection, schedule: Q01DX001 (ip), vehicle: saline 100 % of control | endpoint: mean survival time, dose: 10.0 mg/kg/injection, schedule: Q01DX001 (ip), vehicle: saline 100 % of control | endpoint: mean survival time, dose: 20.0 mg/kg/injection, schedule: Q01DX001 (ip), vehicle: saline 103 % of control | endpoint: mean survival time, dose: 40.0 mg/kg/injection, schedule: Q01DX001 (ip), vehicle: saline 101 % of control | endpoint: mean survival time, dose: 80.0 mg/kg/injection, schedule: Q01DX001 (ip), vehicle: saline 92 % of control

CCCCN(CCCC)CCCN1C(=O)c2ccccc2S1(=O)=O
inactive: endpoint: mean survival time, dose: 44.0 mg/kg/injection, schedule: Q01DX Z (ip), vehicle: methylcellulose (MC) 96 % of control | endpoint: mean survival time, dose: 66.0 mg/kg/injection, schedule: Q01DX Z (ip), vehicle: methylcellulose (MC) 100 % of control | endpoint: mean survival time, dose: 100.0 mg/kg/injection, schedule: Q01DX Z (ip), vehicle: methylcellulose (MC) 96 % of control

NC(=O)NN=C1COC(c2ccccc2)OC1 (stereo unspecified)
inactive: [18] 98 % of control | [1] 89 % of control | [2] 101 % of control | [4] 93 % of control

CCCCCCN(CCCCCC)P(=O)(N1CC1C)N1CC1C (stereo unspecified)
inactive: [19] 104 % of control | [20] 101 % of control

CCC1(c2ccccc2)C(=O)NC(=O)NC1=O
inactive: endpoint: mean survival time, dose: 75.0 mg/kg/injection, schedule: Q01DX001 (ip), vehicle: saline 105 % of control | endpoint: mean survival time, dose: 150.0 mg/kg/injection, schedule: Q01DX001 (ip), vehicle: saline 100 % of control | endpoint: median survival time, dose: 25.0 mg/kg/injection, schedule: Q12HX034 (sc), vehicle: saline 106 % of control | endpoint: median survival time, dose: 50.0 mg/kg/injection, schedule: Q12HX034 (sc), vehicle: saline 100 % of control

N#CCCN(Cc1cccnc1)CN1C(=O)c2ccccc2C1=O
inactive: endpoint: mean survival time, dose: 100.0 mg/kg/injection, schedule: Q04DX002 (ip), vehicle: saline with Tween-80 91 % of control | endpoint: mean survival time, dose: 200.0 mg/kg/injection, schedule: Q04DX002 (ip), vehicle: saline with Tween-80 97 % of control | endpoint: mean survival time, dose: 400.0 mg/kg/injection, schedule: Q04DX002 (ip), vehicle: saline with Tween-80 102 % of control

CC(=O)Nc1cccc(OCc2cccc([N+](=O)[O-])c2)c1
inactive: [15] 97 % of control | [16] 92 % of control | [17] 108 % of control

CCN(CC)CCCC(C)Nc1nccc(/C=C/c2ccc(Cl)cc2)n1 (stereo unspecified)
inactive: [20] 96 % of control | [7] 90 % of control | [21] 105 % of control | [22] 100 % of control | [13] 94 % of control

COc1ccc2nc(NC3=NCCO3)sc2c1
inactive: [5] 98 % of control | [9] 94 % of control | [12] 93 % of control

O=C(NC1=NCCS1)C(=O)NC1=NCCS1
inactive: [8] 105 % of control | [11] 100 % of control | [14] 97 % of control

CC1(C)CC(N=Cc2ccccc2O)CC(C)(C)N1O.CC1(C)CC(N=Cc2ccccc2O)CC(C)(C)N1O.[Ni]
inactive: [8] 100 % of control

CCCC[Si]CCCC
inactive: endpoint: mean survival time, dose: 25.0 mg/kg/injection, schedule: Q01DX001 (ip), vehicle: saline with Tween-80 103 % of control | endpoint: mean survival time, dose: 25.0 mg/kg/injection, schedule: Q01DX009 (ip), vehicle: saline with Tween-80 103 % of control | endpoint: mean survival time, dose: 50.0 mg/kg/injection, schedule: Q01DX001 (ip), vehicle: saline with Tween-80 110 % of control | endpoint: mean survival time, dose: 50.0 mg/kg/injection, schedule: Q01DX009 (ip), vehicle: saline with Tween-80 101 % of control | endpoint: mean survival time, dose: 100.0 mg/kg/injection, schedule: Q01DX001 (ip), vehicle: saline with Tween-80 102 % of control | [6] 101 % of control

O=C(NCCCl)Nc1ccc2c3c(cccc13)CC2
inactive: [5] 87 % of control | [10] 95 % of control

C=CCOC1C=CC=CC=C1
inactive: endpoint: mean survival time, dose: 25.0 mg/kg/injection, schedule: Q01DX009 (ip), vehicle: Klucel (hydroxypropylcellulose) (HPC) 100 % of control | endpoint: mean survival time, dose: 50.0 mg/kg/injection, schedule: Q01DX009 (ip), vehicle: Klucel (hydroxypropylcellulose) (HPC) 100 % of control | [7] 94 % of control

OC(O)(C(F)(F)F)C(F)(F)F
inactive: endpoint: mean survival time, dose: 12.5 mg/kg/injection, schedule: Q01DX005 (ip), vehicle: saline 108 % of control | endpoint: mean survival time, dose: 12.5 mg/kg/injection, schedule: Q01DX009 (ip), vehicle: saline 95 % of control | endpoint: mean survival time, dose: 25.0 mg/kg/injection, schedule: Q01DX005 (ip), vehicle: saline 108 % of control | endpoint: mean survival time, dose: 25.0 mg/kg/injection, schedule: Q01DX009 (ip), vehicle: saline 104 % of control | endpoint: mean survival time, dose: 50.0 mg/kg/injection, schedule: Q01DX005 (ip), vehicle: saline 104 % of control | [18] 92 % of control

O=C1c2ccccc2C(=O)N1CCCCCCN1C(=O)c2ccccc2C1=O
inactive: endpoint: mean survival time, dose: 100.0 mg/kg/injection, schedule: Q04DX002 (ip), vehicle: gum acacia 96 % of control | endpoint: mean survival time, dose: 200.0 mg/kg/injection, schedule: Q04DX002 (ip), vehicle: gum acacia 107 % of control | endpoint: mean survival time, dose: 400.0 mg/kg/injection, schedule: Q04DX002 (ip), vehicle: gum acacia 101 % of control

CCOC(=O)/C(C#N)=C1\CCC=C(C)C1
inactive: endpoint: mean survival time, dose: 75.0 mg/kg/injection, schedule: Q01DX001 (ip), vehicle: other 97 % of control | endpoint: mean survival time, dose: 150.0 mg/kg/injection, schedule: Q01DX001 (ip), vehicle: other 102 % of control | endpoint: mean survival time, dose: 300.0 mg/kg/injection, schedule: Q01DX001 (ip), vehicle: other 98 % of control

COC(=O)C1=C(C(=O)OC)C2CC1C1OC21 (stereo unspecified)
inactive: [1] 96 % of control | [3] 98 % of control

Nc1ccc(S(=O)(=O)Nc2ccc(I)cc2)cc1
inactive: [5] 100 % of control | [7] 100 % of control | [9] 96 % of control | [10] 97 % of control | [12] 93 % of control | [13] 92 % of control

CC(C)=CCC/C(C)=C\C=N\NC(N)=S
inactive: endpoint: mean survival time, dose: 50.0 mg/kg/injection, schedule: Q01DX001 (ip), vehicle: carboxymethylcellulose (CMC) 96 % of control | [15] 104 % of control | [16] 104 % of control

Cc1cn(C2CC(O)C(CO)O2)c(=O)n(Cc2ccccc2)c1=O (stereo unspecified)
inactive: [19] 108 % of control | [20] 108 % of control | [21] 98 % of control | [22] 108 % of control

— PubChem BioAssay AID248 (DTP/NCI, 2004)
